ChEMBL document CHEMBL3351415, “Synthesis, antimicrobial and anti-biofilm activities of novel Schiff base analogues derived from methyl-12-aminooctadec-9-enoate” (Bioorg Med Chem Lett, 2014)
≈ marks a conversion by molar mass, not a printed value.

Columns and labels:
Bacillus subtilis [1] = test: Bactericidal activity against Bacillus subtilis MTCC 121 incubated for 24 hrs; assay type: functional; conditions: MTCC 121, 24 h
Staphylococcus aureus [2] = test: Anti-biofilm activity against Staphylococcus aureus MLS-16 MTCC 2940 assessed as inhibition of biofilm formation incubated for 24 hrs by crystal violet staining based modified biofilm inhibition assay; assay type: functional, organism-based; conditions: MLS-16 MTCC 2940, 24 h
Staphylococcus aureus [3] = test: Anti-biofilm activity against Staphylococcus aureus MTCC 96 assessed as inhibition of biofilm formation incubated for 24 hrs by crystal violet staining based modified biofilm inhibition assay; assay type: functional, organism-based; conditions: MTCC 96, 24 h
Staphylococcus aureus [4] = test: Antimicrobial activity against Staphylococcus aureus MLS-16 MTCC 2940 incubated for 24 hrs by well diffusion method; assay type: functional; conditions: MLS-16 MTCC 2940, 24 h
Bacillus subtilis [5] = test: Anti-biofilm activity against Bacillus subtilis MTCC 121 assessed as inhibition of biofilm formation incubated for 24 hrs by crystal violet staining based modified biofilm inhibition assay; assay type: functional, organism-based; conditions: MTCC 121, 24 h
Staphylococcus aureus [6] = test: Bactericidal activity against Staphylococcus aureus MTCC 96 incubated for 24 hrs; assay type: functional; conditions: MTCC 96, 24 h
Pseudomonas aeruginosa = test: Antimicrobial activity against Pseudomonas aeruginosa MTCC 2453 incubated for 24 hrs by well diffusion method; assay type: functional; conditions: MTCC 2453, 24 h
Escherichia coli = test: Antimicrobial activity against Escherichia coli MTCC 739 incubated for 24 hrs by well diffusion method; assay type: functional; conditions: MTCC 739, 24 h
Bacillus subtilis [7] = test: Antimicrobial activity against Bacillus subtilis MTCC 121 incubated for 24 hrs by well diffusion method; assay type: functional; conditions: MTCC 121, 24 h
Staphylococcus aureus [8] = test: Antimicrobial activity against Staphylococcus aureus MTCC 96 incubated for 24 hrs by well diffusion method; assay type: functional; conditions: MTCC 96, 24 h
Micrococcus luteus = test: Antimicrobial activity against Micrococcus luteus MTCC 2470 incubated for 24 hrs by well diffusion method; assay type: functional; conditions: MTCC 2470, 24 h
[9] = Antimicrobial activity against Klebsiella […] incubated for 24 hrs by well diffusion method; assay type: functional, Raoultella planticola
Staphylococcus aureus [10] = test: Bactericidal activity against Staphylococcus aureus MLS-16 MTCC 2940 incubated for 24 hrs; assay type: functional; conditions: MLS-16 MTCC 2940, 24 h

| SMILES | MBC (Bacillus subtilis [1]) [µM] | IC50 (Staphylococcus aureus [2]) [µM] | IC50 (Staphylococcus aureus [3]) [µM] | MIC (Staphylococcus aureus [4]) [µM] | IC50 (Bacillus subtilis [5]) [µM] | MBC (Staphylococcus aureus [6]) [µM] | MIC (Pseudomonas aeruginosa) [µM] | MIC (Escherichia coli) [µM] | MIC (Bacillus subtilis [7]) [µM] | MIC (Staphylococcus aureus [8]) [µM] | MIC (Micrococcus luteus) [µM] | MIC [9] [µM] | MBC (Staphylococcus aureus [10]) [µM] |
| --- | --- | --- | --- | --- | --- | --- | --- | --- | --- | --- | --- | --- | --- |
| CCCCCCC(C/C=C\CCCCCCCC(=O)OC)/N=C\c1ccc(OC)c(OC)c1 (stereo not given) | 33.9 (≈ 15.6 µg/mL) | 24.4 | 41.8 | 33.9 (≈ 15.6 µg/mL) | 21.3 | 136 (≈ 62.5 µg/mL) | > 300 | > 300 | 33.9 (≈ 15.6 µg/mL) | 67.9 (≈ 31.2 µg/mL) | > 300 | > 300 | 67.9 (≈ 31.2 µg/mL) |
| CCCCCCC(C/C=C\CCCCCCCC(=O)OC)/N=C\c1ccc(C)cc1 (stereo not given) |  |  |  | > 300 |  |  | > 300 | > 300 | > 300 | > 300 | > 300 | > 300 |  |
| CCCCCCC(C/C=C\CCCCCCCC(=O)OC)/N=C\c1ccc(O)c(OC)c1 (stereo not given) | 35 (≈ 15.6 µg/mL) | 8 | 9.4 | 17.5 (≈ 7.8 µg/mL) | 10.3 | 35 (≈ 15.6 µg/mL) | > 300 | > 300 | 17.5 (≈ 7.8 µg/mL) | 17.5 (≈ 7.8 µg/mL) | > 300 | > 300 | 35 (≈ 15.6 µg/mL) |
| CCCCCCC(C/C=C\CCCCCCCC(=O)OC)/N=C\c1cc(OC)c(O)c(OC)c1 (stereo not given) | 16.4 (≈ 7.8 µg/mL) | 6.5 | 7.3 | 16.4 (≈ 7.8 µg/mL) | 8.6 | 16.4 (≈ 7.8 µg/mL) | > 300 | > 300 | 16.4 (≈ 7.8 µg/mL) | 16.4 (≈ 7.8 µg/mL) | > 300 | > 300 | 32.8 (≈ 15.6 µg/mL) |
| O=C(O)c1cn(C2CC2)c2cc(N3CCNCC3)c(F)cc2c1=O [CIPROFLOXACIN] | 5.7 (≈ 1.89 µg/mL) |  | 0.99 | 2.7 (≈ 0.895 µg/mL) | 1.53 | 2.7 (≈ 0.895 µg/mL) | 2.7 (≈ 0.895 µg/mL) | 2.7 (≈ 0.895 µg/mL) | 2.7 (≈ 0.895 µg/mL) | 2.7 (≈ 0.895 µg/mL) | 2.7 (≈ 0.895 µg/mL) | 2.7 (≈ 0.895 µg/mL) | 5.7 (≈ 1.89 µg/mL) |
| CCCCCCC(C/C=C\CCCCCCCC(=O)OC)/N=C\c1ccc(Cl)cc1 (stereo not given) | 9 (≈ 3.91 µg/mL) | 4.3 | 4.8 | 9 (≈ 3.91 µg/mL) | 6 | 18 (≈ 7.81 µg/mL) | > 300 | > 300 | 9 (≈ 3.91 µg/mL) | 9 (≈ 3.91 µg/mL) | > 300 | > 300 | 18 (≈ 7.81 µg/mL) |
| CCCCCCC(C/C=C\CCCCCCCC(=O)OC)/N=C\C=C\c1ccc(N(C)C)cc1 (stereo not given) | 66.6 (≈ 31.2 µg/mL) | 8.1 | 10.2 | 16.6 (≈ 7.78 µg/mL) | 21.7 | 16.6 (≈ 7.78 µg/mL) | > 300 | > 300 | 33.3 (≈ 15.6 µg/mL) | 16.6 (≈ 7.78 µg/mL) | > 300 | > 300 | 33.3 (≈ 15.6 µg/mL) |
| CCCCCCC(C/C=C\CCCCCCCC(=O)OC)/N=C\c1ccc(N(C)C)cc1 (stereo not given) | 70.5 (≈ 31.2 µg/mL) | 11.5 | 9.5 | 17.6 (≈ 7.79 µg/mL) | 27.8 | 17.6 (≈ 7.79 µg/mL) | > 300 | > 300 | 35.2 (≈ 15.6 µg/mL) | 17.6 (≈ 7.79 µg/mL) | > 300 | > 300 | 35.2 (≈ 15.6 µg/mL) |
| CCCCCCC(C/C=C\CCCCCCCC(=O)OC)/N=C\c1ccc(O)cc1 (stereo not given) | 75.1 (≈ 31.2 µg/mL) | 9.1 | 10.1 | 18.7 (≈ 7.77 µg/mL) | 19.5 | 37.5 (≈ 15.6 µg/mL) | > 300 | > 300 | 37.5 (≈ 15.6 µg/mL) | 18.7 (≈ 7.77 µg/mL) | > 300 | > 300 | 37.5 (≈ 15.6 µg/mL) |
| CCCCCCC(C/C=C\CCCCCCCC(=O)OC)/N=C\c1ccc(OC)cc1 (stereo not given) | 36.3 (≈ 15.6 µg/mL) | 23.7 | 12.1 | 36.3 (≈ 15.6 µg/mL) | 7.9 | 36.3 (≈ 15.6 µg/mL) | > 300 | > 300 | 18.1 (≈ 7.78 µg/mL) | 18.1 (≈ 7.78 µg/mL) | > 300 | > 300 | 36.3 (≈ 15.6 µg/mL) |
| CCCCCCC(C/C=C\CCCCCCCC(=O)OC)/N=C\c1ccc(OC)cc1OC (stereo not given) |  |  |  | 33.9 (≈ 15.6 µg/mL) |  |  | > 300 | > 300 | 33.9 (≈ 15.6 µg/mL) | 67.9 (≈ 31.2 µg/mL) | > 300 | > 300 |  |
| CCCCCCC(C/C=C\CCCCCCCC(=O)OC)/N=C\c1ccc(Cl)cc1Cl (stereo not given) |  |  |  | > 300 |  |  | > 300 | > 300 | > 300 | > 300 | > 300 | > 300 |  |
| CCCCCCC(C/C=C\CCCCCCCC(=O)OC)/N=C\c1ccc(F)cc1 (stereo not given) |  |  |  | 150 (≈ 62.6 µg/mL) |  |  | > 300 | > 300 | 150 (≈ 62.6 µg/mL) | 150 (≈ 62.6 µg/mL) | > 300 | > 300 |  |
| CCCCCCC(C/C=C\CCCCCCCC(=O)OC)/N=C\c1cccc([N+](=O)[O-])c1 (stereo not given) |  |  |  | > 300 |  |  | > 300 | > 300 | > 300 | > 300 | > 300 | > 300 |  |
| CCCCCCC(C/C=C\CCCCCCCC(=O)OC)/N=C\c1c[nH]c2ccccc12 (stereo not given) | 71.2 (≈ 31.2 µg/mL) | 9.5 | 7.3 | 17.8 (≈ 7.81 µg/mL) | 21.9 | 35.6 (≈ 15.6 µg/mL) | > 300 | > 300 | 35.6 (≈ 15.6 µg/mL) | 17.8 (≈ 7.81 µg/mL) | > 300 | > 300 | 35.6 (≈ 15.6 µg/mL) |
| CCCCCCC(C/C=C\CCCCCCCC(=O)OC)/N=C\c1cccc(C)c1 (stereo not given) |  |  |  | 75.5 (≈ 31.2 µg/mL) |  |  | > 300 | > 300 | 75.5 (≈ 31.2 µg/mL) | 151 (≈ 62.6 µg/mL) | > 300 | > 300 |  |
| CCCCCCC(C/C=C\CCCCCCCC(=O)OC)/N=C\c1ccccc1O (stereo not given) |  |  |  | > 300 |  |  | > 300 | > 300 | > 300 | > 300 | > 300 | > 300 |  |
| CCCCCCC(C/C=C\CCCCCCCC(=O)OC)/N=C\c1ccc(C#N)cc1 (stereo not given) |  |  |  | > 300 |  |  | > 300 | > 300 | > 300 | > 300 | > 300 | > 300 |  |
